Source: patent US20080090900A1, “ANTIBIOTIC BUSHRIN” (University of Karachi, priority 2006, published 2008)
In brackets after ≈: the same amount, converted by molar mass. Entries after “also recorded” stand apart in the source; their conditions may differ. Like-named read-outs stand apart in the source and are kept apart here.

Experiments:
[1] = test system: Staphylococcus aureus (ATCC33591); assay: Time kill experiment; conditions: for course of viable bacterial cell count: at two and four times the MIC
[2] = test system: MSSA methicillin sensitive staphylococcus aureus; assay: disc diffusion technique; type: cell-based
[3] = test system: Staphylococcus epidermidis; assay: disc diffusion technique; type: cell-based
[4] = test system: Enterococcus faecalis; assay: disc diffusion technique; type: cell-based; conditions: 150 μg disc, read-out: Sensitivity (width of inhibition zone)
[5] = test system: Enterococcus faecium; assay: disc diffusion technique; type: cell-based; conditions: 150 μg disc, read-out: Sensitivity (width of inhibition zone)
[6] = test system: Bacillus subtilis; assay: disc diffusion technique; type: cell-based
[7] = test system: Bacillus steriothermophilus; assay: disc diffusion technique; type: cell-based; conditions: 150 μg disc, read-out: Sensitivity (width of inhibition zone)
[8] = test system: Bacillus cereus; assay: disc diffusion technique; type: cell-based; conditions: 150 μg disc, read-out: Sensitivity (width of inhibition zone)
[9] = test system: Streptococcus group G; assay: disc diffusion technique; type: cell-based; conditions: 150 μg disc
[10] = test system: Clostridium perfringens; assay: microbe, parasite or virus in culture; type: cell-based
[11] = test system: Clostridium sporogenes; assay: microbe, parasite or virus in culture; type: cell-based; conditions: Clostridium sporogenes, read-out: Sensitivity (width of inhibition zone)
[12] = test system: Escherichia coli; assay: disc diffusion technique; type: cell-based; conditions: 150 μg disc, read-out: Sensitivity (width of inhibition zone)
[13] = test system: Vibrio harveyi; assay: disc diffusion technique; type: cell-based; conditions: 150 μg disc, read-out: Sensitivity (width of inhibition zone)
[14] = test system: Salmonella typhi; assay: disc diffusion technique; type: cell-based
[15] = test system: Proteus morgani; assay: disc diffusion technique; type: cell-based; conditions: 150 μg disc, read-out: Sensitivity (width of inhibition zone)
[16] = test system: Proteus mirabilis; assay: disc diffusion technique; type: cell-based
[17] = test system: Serratia marcescens; assay: disc diffusion technique; type: cell-based
[18] = test system: Shewanella putrifacians; assay: disc diffusion technique; type: cell-based; conditions: 150 μg disc, read-out: Sensitivity (width of inhibition zone)
[19] = test system: Hafnia alvei; assay: disc diffusion technique; type: cell-based
[20] = test system: Klebsiella aerogenes; assay: disc diffusion technique; type: cell-based; conditions: 150 μg disc
[21] = test system: Candida albicans; assay: disc diffusion technique; type: cell-based
[22] = test system: Vibrio cholera; assay: disc diffusion technique; type: cell-based
[23] = test system: Enterobacter faecalis; assay: disc diffusion technique; type: cell-based
[24] = test system: MSSA methicillin sensitive staphylococcus aureus; type: cell-based
[25] = test system: Staphylococcus epidermidis; type: cell-based
[26] = test system: Enterococcus faecalis; type: cell-based
[27] = test system: Enterococcus faecium; type: cell-based
[28] = test system: Bacillus subtilis; type: cell-based
[29] = test system: Bacillus steriothermophilus; type: cell-based
[30] = test system: Bacillus cereus; type: cell-based
[31] = test system: Clostridium perfringens; type: cell-based
[32] = test system: Clostridium sporogenes; assay: microbe, parasite or virus in culture; type: cell-based
[33] = test system: Escherichia coli; type: cell-based
[34] = test system: Vibrio harveyi; type: cell-based
[35] = test system: Salmonella typhi; type: cell-based; conditions: Salmonella enterica
[36] = test system: Proteus morgani; type: cell-based
[37] = test system: Proteus mirabilis; type: cell-based
[38] = test system: Serratia marcescens; type: cell-based
[39] = test system: Shewanella putrifacians; type: cell-based
[40] = test system: Hafnia alvei; type: cell-based
[41] = test system: Staphylococcus aureus; type: cell-based
[42] = test system: Enterobacter faecalis; type: cell-based
[43] = test system: Vibrio cholera; type: cell-based; conditions: Vibrio cholerae
[44] = test system: Streptococcus sp; type: cell-based
[45] = test system: Candida albicans; type: cell-based; conditions: MIC determination
[46] = test system: Gram negative bacteria; type: cell-based
Description: (§1) The minimum inhibitory concentration (MIC) of Compound 1 was determined by the standard microdilution method described in the national committee for clinical laboratory standards (National Committee for Clinical Laboratory Standards, 1997. Method for dilution antimicrobial susceptibility test for bacteria, that grow aerobically, 4th ed., p, 1-29. National Committee for Clinical Laboratory Standards) using Muller Hinton broth medium (Oxoid) incubated at 37° C. for 24 h. […] This substance was slightly active against Streptococcus sp for which the MIC was 200 μg/ml.

[47] = test system: Gram-positive bacteria; type: cell-based
Description: as §1

[48] = Heat stability test (antibacterial activity by disk diffusion after heating); type: physicochemical
Description: […] After the treatment, the liquid in each tube was evaporated completely and Compound 1 was re-dissolved in methanol to give an appropriate concentration. Then antibacterial activity was evaluated in triplicate by the disk diffusion method.

[49] = test system: Staphylococcus aureus; assay: Bacteriolytic assay; type: cell-based; conditions: 600 nm, 30° C., 0-360 min, various concentrations
Description: The seed culture of Staphylococcus aureus in Luria broth (LB) were washed twice with sterile distilled water containing 0.9% sodium chloride and the absorbance was adjusted to 0.05 at 600 nm. The bacterial cell suspension was divided into aliquots of 5 ml each placed in sterile test tube and exposed to Compound 1 at various concentration, untreated bacterial suspension were used as the negative control.

[50] = test system: Staphylococcus aureus; assay: Spheroplasting activities; type: cell-based; conditions: for formation of osmotically fragile spheroplasts: Luria broth with 0.3M sucrose, 90 minutes, phase contrast microscope
Description: Aliquots (100 μl) of an exponential phase culture(A600,0.05) grown in Luria broth supplemented with 0.3M concentration of sucrose were dispensed into test tubes containing different concentration of Compound 1 and 1 μl/ml ampicillin as positive control. The tubes were then incubated at 30° C. with shaking at 140 rpm. After 90 minutes, the cells were examined by phase contrast microscope for any morphological changes or for the presence of spheroplast. To confirm the osmotic fragility of the spheroplast the lytic effect of 2-3 μl of water added under the cover slip was tested.

[51] = test system: Bacillus subtilis; assay: Phase contrast microscopy; type: cell-based; conditions: 50 μl/ml, immediately after treatment
Description: (§2) An exponential phase culture (A600, 0.05) of Bacillus subtilis and Staphylococcus aureus grown in Luria broth was treated with 50 μl/ml of Compound 1 for Bacillus subtilis and 60 μl/ml for Staphylococcus aureus and slides were immediately made in 1% agarose using 4 μl of Compound 1 treated cultures, time lapse images were obtained under phase contrast microscope, particular care was taken to minimize the sample exposure to UV light, image grabbing were performed essentially as described by Edwards and Errrington. (Edwards, D. H., and Errington, J.(1997). The Bacillus subtilis […] protein targets to the division septum and control the site specificity of cell division. Mol Microbiol 24:905-915).

[52] = test system: Staphylococcus aureus; assay: Phase contrast microscopy; type: cell-based; conditions: 60 μl/ml, immediately after treatment
Description: as §2

[53] = test system: Bacillus subtilis; assay: Complete killing of Bacillus subtilis; type: cell-based
[54] = 150 μg disc, read-out: Sensitivity (width of inhibition zone)

With `CN[C@H](CC(C)C)C(=O)N[C@H]1C(=O)N[C@@H](CC(N)=O)C(=O)N[C@H]2C(=O)N[C@H]3C(=O)N[C@H](C(=O)N[C@H](C(=O)O)c4cc(O)cc(O)c4-c4cc3ccc4O)[C@H](O)c3ccc(c(Cl)c3)Oc3cc2cc(c3O[C@@H]2O[C@H](CO)[C@@H](O)[C@H](O)[C@H]2O[C@H]2C[C@](C)(N)[C@H](O)[C@H](C)O2)Oc2ccc(cc2Cl)[C@H]1O` [vancomycin, reference compound] the “course of viable bacterial cell count” value [1] was “decreased gradually”.
In the case of `Cc1cc(O)c2c(c1)C=CC(C)(c1ccoc1)C2` (centres unmarked) [Compound 1, 7-(3-furyl)-3,7-dimethyl-7,8-dihydro-1-naphthalenol], the “antibacterial activity” value ([2]; Staphylococcus aureus MSSA) is reported as “active; also recorded: activity”, the zone of inhibition at 150 µg/disc ([2]; Staphylococcus aureus, 150 μg disc, MSSA, read-out: Sensitivity (width of inhibition zone)) is reported as 18 to 30 mm and the zone of inhibition at 150 µg/disc ([3]; 150 μg disc, Staphylococcus epidermidis, read-out: Sensitivity (width of inhibition zone)) is reported as 18 to 30 mm. For the same compound, the “antibacterial activity” value ([3]; Staphylococcus epidermids) was “active; also recorded: activity”, the zone of inhibition at 150 µg/disc [4] was 18 to 30 mm and the zone of inhibition at 150 µg/disc [5] was 18 to 30 mm. For the same compound, the “antibacterial activity” value [6] was “active; also recorded: activity”, the zone of inhibition at 150 µg/disc [6, 54] was 18 to 30 mm and the zone of inhibition at 150 µg/disc [7] was 18 to 30 mm. The zone of inhibition at 150 µg/disc [8] was 18 to 30 mm, the “Sensitivity (width of inhibition zone)” value [9] was “−” and the zone of inhibition at 150 µg/disc ([10]; Clostridium perfringens, read-out: Sensitivity (width of inhibition zone)) was 10 to 15 mm. The “antibacterial activity” value ([10]; disc diffusion, anaerobic Clostridium perfringens) was “less active”, the zone of inhibition at 150 µg/disc [11] was 10 to 15 mm and the zone of inhibition at 150 µg/disc [12] was 10 to 15 mm. For the same compound, the zone of inhibition at 150 µg/disc [13] was 18 to 30 mm, the zone of inhibition at 150 µg/disc ([14]; Salmonella enterica, TYPHI, read-out: Sensitivity (width of inhibition zone)) was 15 to 20 mm and the “antibacterial activity” value ([14]; disc diffusion, Salmonella typhi) was “active; also recorded: activity”. The zone of inhibition at 150 µg/disc [15] was 18 to 30 mm, the “antibacterial activity” value [16] was “active; also recorded: activity” and the zone of inhibition at 150 µg/disc [16, 54] was 18 to 30 mm. The zone of inhibition at 150 µg/disc ([17]; 150 μg disc, Serratia marcescens, read-out: Sensitivity (width of inhibition zone)) was 15 to 20 mm, the “antibacterial activity” value ([17]; Serratia marcesens) was “active; also recorded: activity” and the zone of inhibition at 150 µg/disc [18] was 10 to 15 mm. The “antibacterial activity” value [19] was “active; also recorded: activity”, the zone of inhibition at 150 µg/disc [19, 54] was 15 to 20 mm and the “Sensitivity (width of inhibition zone)” value [20] was “−”. For the same compound, the “activity” value [21] was “not active”, the “Sensitivity (width of inhibition zone)” value ([21]; 150 μg disc) was “−” and the “antibacterial activity” value [22] was “active; also recorded: activity”. The “antibacterial activity” value [23] was “active; also recorded: activity”, the MIC [24] was 60 µg/mL (≈ 250 µM) and the MIC [25] was 50 to 100 µg/mL. The MIC ([25]; Staphylococcus epidermidis, read-out: MIC) was 50 µg/mL (≈ 208 µM), the MIC [26] was 50 µg/mL (≈ 208 µM) and the MIC [27] was 50 µg/mL (≈ 208 µM). It also gave an MIC [28] of 50 to 60 µg/mL, an MIC ([28]; Bacillus subtilis, read-out: MIC) of 50 µg/mL (≈ 208 µM) and an MIC [29] of 50 to 60 µg/mL. It also gave an MIC ([29]; Bacillus steriothermophilus, read-out: MIC) of 50 µg/mL (≈ 208 µM), an MIC [30] of 60 µg/mL (≈ 250 µM) and an MIC [31] of 100 µg/mL (≈ 416 µM). The MIC [32] was 125 µg/mL (≈ 520 µM), the MIC [33] was 75 µg/mL (≈ 312 µM) and the MIC [34] was 75 µg/mL (≈ 312 µM). The MIC [35] was 75 µg/mL (≈ 312 µM), the MIC [36] was 75 µg/mL (≈ 312 µM) and the MIC [37] was 75 µg/mL (≈ 312 µM). For the same compound, the MIC ([37]; Proteus mirabilis, read-out: MIC) was 75 µg/mL (≈ 312 µM), the MIC [38] was 60 µg/mL (≈ 250 µM) and the MIC ([38]; Serratia marcescens, read-out: MIC) was 60 µg/mL (≈ 250 µM). It also gave an MIC [39] of 75 µg/mL (≈ 312 µM), an MIC [40] of 100 µg/mL (≈ 416 µM) and an MIC ([40]; Hafnia alvei, read-out: MIC) of 100 µg/mL (≈ 416 µM). It also gave an MIC ([41]; Staphylococcus aureus) of 50 to 100 µg/mL (≈ 208 to 416 µM), an MIC ([41]; Staphylococcus aureus (ATCC33591), stated in time kill experiment, read-out: MIC) of 50 µg/mL (≈ 208 µM) and an MIC [42] of 100 µg/mL (≈ 416 µM). For the same compound, the MIC [43] was 60 µg/mL (≈ 250 µM), the MIC [44] was 200 µg/mL (≈ 832 µM) and the “activity against Candida albicans” value [45] was “not found active”. For the same compound, the MIC [46] was 75 to 125 µg/mL (≈ 312 to 520 µM), the MIC [47] was 50 to 75 µg/mL (≈ 208 to 312 µM) and the “antibacterial activity after heat treatment” value ([48]; at 200° C.) was “completely lost”. For the same compound, the “antibacterial activity after heat treatment” value ([48]; treatment at 120° C.) was “significantly reduced”, the “absorbance of Staphylococcus aureus cell suspension (lysis)” value [49] was “Reduction of the absorbance” and the “formation of osmotically fragile spheroplasts” value [50] was “did not induce”. For the same compound, the “killing of cells in osmotically protected medium” value ([50]; Staphylococcus aureus) was “killed”, the “morphological change of treated cells (time lapse images)” value [51] was “uniform and consistent decrease in size of cells” and the “morphological change of treated cells (time lapse images)” value [52] was “complete lyses”. For the same compound, the “concentration that completely killed” value [53] was 100 µg/mL, the “concentration able to kill completely” value ([1]; Staphylococcus aureus) was 125 µg/mL and the “exposure time after which number of viable bacterial cells decreased” value ([1]; at MIC 50 μg/ml) was 8 h. For the same compound, the “course of viable bacterial cell count” value [1] was “decreased drastically”, the “time after which viable count decreased drastically” value ([1]; four times the MIC) was 1 h and the “killing rate compared with test antibiotics” value ([1]; same concentration and length of exposure, vs vancomycin, nisin, tetracycline, ampicillin) was “much higher”. For the same compound, the bactericidal activity ([1]; time kill, Staphylococcus aureus) was “rapidly bactericidal” and the “time after which viable count decreased drastically” value ([1]; two times the MIC) was 2 h.
In the case of `CC1(C)S[C@@H]2[C@H](NC(=O)[C@H](N)c3ccccc3)C(=O)N2[C@H]1C(=O)O` [ampicillin, reference compound], the “formation of osmotically fragile spheroplasts” value [50] is reported as “observed” and the “course of viable bacterial cell count” value [1] is reported as “decreased gradually”.
